Patent publication US20250345318A1, “COMPOUND AND USE THEREOF IN PREVENTING OR TREATING RADIATION DAMAGE” (SIMCERE PHARMACEUTICAL CO., LTD., priority 2022, published 2025)

What was measured:
C57BL/6 male mice = experiment: Prophylactic JAC4 administration, total body X-ray irradiation, small intestine villus length (Example 6); assay type: in vivo
Procedure: C57BL/6 male mice (24.8±1.6 g in body weight) aged 10 weeks were divided into 4 groups. JAC4 (100 mg/kg) or an equal volume of vehicle (polyethylene glycol:ethanol:physiological saline=47.5:7.5:50, v/v/v) was orally administered to the mice once daily for 7 consecutive days. After that, the mice were subjected to total body X-ray irradiation (6 Gy) and JAC4 or vehicle treatment was discontinued. After 7 days, the small intestine tissues were collected for HE staining and inspection, and the small intestine villus length was measured in all groups and statistically analyzed. The specific procedures are as follows: 3 mice were randomly selected from each group for statistical analysis of their small intestine tissue HE staining images, and for each mouse, 6 fields of view were randomly selected for inspection (*** p<0.001).

IEC-6 cells = experiment: Mitochondrial membrane potential by JC-1 staining in irradiated IEC-6 cells (Example 13); assay type: cell-based; conditions: JAC4 24 h pretreatment + 12 Gy, 24 h after
Procedure: IEC-6 cells were pretreated for 24 h with JAC4 ([…]) or DMSO and subjected to radiation (12 Gy) treatment. After 24 h the ROS produced in the IEC-6 cells was determined with a DCFH probe, the apoptosis of IEC-6 cells was determined by Hoechst staining, the mitochondrial membrane potential in IEC-6 cells was determined by JC-1 staining, and the apoptotic IEC-6 cell ratio of cells different treatments and the red/green fluorescence ratio in IEC-6 cells after different treatments were calculated (**p<0.01 and ***p<0.001).

BEAS-2B cells [1] = experiment: CCK-8 cell viability, JAC4 with X-ray, BEAS-2B (Example 22); assay type: cell-based, human; conditions: 10 μM JAC4 24 h + 4 Gy X-ray 24 h
Procedure: SPCA-1 and BEAS-2B cells were cultured in a 90%/DMEM+10% FBS+100 μg/mL ciprofloxacin culture medium. The SPCA-1 and BEAS-2B cells were pretreated for 24 h with 10 μM JAC4 and subjected to 4 Gy X-ray treatment for 24 h and then CCK-8 detection, so as to explore the influence of JAC4 in combination with X-ray on the viability of SPCA-1 and BEAS-2B cells. The specific procedures are as follows:
1. SPCA-1 and BEAS-2B cells in the exponential growth phase were plated in a 96-well plate at 5,000 cells/well in triplicate for each group.
2. After 24 h of culture, when the cells fully adhered to the container wall and returned to normal morphology, the cells were treated with X-ray radiation of 0, 4, 8, 12, 16, or 20 Gy or JAC4 at 0, 1, 5, 10, 20, or 50 μM.
3. After 24 h of treatment, CCK-8 reagent was added at 10 μL/well, and the cells were incubated in a cell incubator for 1 h. The absorbance (OD) at 450 nm was measured.
4. Cell viability equation: cell viability (%)=[…]×100%/(ODcontrol−ODblank).

BEAS-2B cells [2] = experiment: Plate colony formation, BEAS-2B (Example 22); assay type: cell-based, human
Procedure: The cell proliferation capacity was determined by a plate colony formation experiment, with the following specific procedures.
1. SPCA-1 and BEAS-2B cells (or SPCA-1 and BEAS-2B cells transfected with JWA-knockdown plasmids) in the exponential growth phase were plated in 6-well plates at a specific amount. The number of plated cells is as follows
2. After the cells adhered to the container wall, the cells were treated (or not treated) with […] JAC4 and treated with X-ray of 0, 2, 4, or 6 Gy. The medium was replaced with a fresh medium containing JAC4 at the corresponding concentration once every 2 days (or the cells were treated with X-ray of 0, 2, 4, or 6 Gy after adhesion, and the medium was replaced with a fresh medium once every 2 days).
3. After the cells were cultured for 10-14 days, colonies were visually observed. The culture medium was discarded, and the cells were fixed with methanol for 10-20 min, stained with crystal violet for 10 min, slowly washed with flowing clear water thrice, photographed, and counted for colonies containing>50 cells.
4. The colony forming efficiency (CFE)=(number of colonies formed/number of seeded cells) 100% was calculated, and the cell survival fraction (SF)=(colony forming efficiency of treatment group/colony forming efficiency of 0 Gy group)×100% was calculated from the colony forming efficiency.

BEAS-2B cells [3] = experiment: γ-H2AX foci and Western blot (DSBs), BEAS-2B (Example 22); assay type: cell-based, human
Procedure: To investigate the effect of JAC4 in combination with X-ray on DSBs in SPCA-1 and BEAS-2B cells, SPCA-1 and BEAS-2B cells were pretreated with 10 μM JAC4 for 24 h and 4 Gy X-ray for 2 h, and then subjected to γ-H2AX fluorescent labeling and Western immunoblot (see Example 4 for detailed procedures).

SPCA-1 cells = experiment: Intracellular ROS (DCFH-DA), SPCA-1 (Example 22); assay type: cell-based, human
Text: (§1) The large amount of reactive oxygen species (ROS) induced by X-ray and the sustained oxidative stress reaction may cause DNA damage. Superoxide dismutase (SOD) and catalase (CAT) exert antioxidant effects, and the lipid oxidation product malondialdehyde (MDA) and ROS can reflect the oxidative stress level in vivo. The intracellular ROS level was detected using the fluorescent probe DCFH-DA. […] The supernatant of BEAS-2B cells was extracted and subjected to an MDA assay and an activity assay for CAT and SOD.

BEAS-2B cells [4] = experiment: ROS, SOD, CAT and MDA assays, BEAS-2B (Example 22); assay type: cell-based, human
Text: as §1

## c1ccc(CSc2nnc(C3COc4ccccc4O3)o2)nc1 (centres unmarked) [JAC4]
C57BL/6 male mice; JAC4 100 mg/kg oral 7 days pretreatment, then TBI 6 Gy, tissue 7 days later
  small intestine villus length: 277.64±33.55 μm
C57BL/6 male mice; non-radiation, JAC4 100 mg/kg oral 7 days
  small intestine villus length: 306.54±14.00 μm
IEC-6 cells
  red/green fluorescence ratio (JC-1, mitochondrial membrane potential): 0.49±0.05
BEAS-2B cells [1]
  BEAS-2B cell viability (CCK-8): alleviated the inhibitory effect of X-ray
BEAS-2B cells [2]; 10 μM JAC4 + X-ray vs X-ray monotherapy
  cell survival (radiosensitization curve): slightly increased
BEAS-2B cells [2]; JAC4 in combination with X-ray
  number of colonies formed: increased
BEAS-2B cells [3]; 10 μM JAC4 24 h + 4 Gy X-ray 2 h vs X-ray treatment group
  formation of γ-H2AX foci: significantly reduced
BEAS-2B cells [3]; 10 μM JAC4 + 4 Gy X-ray
  JWA expression level (Western blot): increased
  γ-H2AX protein expression level (Western blot): decreased
SPCA-1 cells
  ROS level: no significant effect
BEAS-2B cells [4]; JAC4+X-ray group
  CAT activity: 3.56±0.02 U/mg
  SOD activity: 24.20±1.18 U/mg
  oxidation product MDA level: 31.35 ± 4.34 µM/mg
BEAS-2B cells [4]; JAC4 group
  CAT activity: 3.42±0.08 U/mg
  SOD activity: 28.67±1.36 U/mg
  oxidation product MDA level: 24.95 ± 1.63 µM/mg
BEAS-2B cells [4]; JAC4 in combination with X-ray
  ROS level: significantly reduced
